Data reported in US20170050966A1, “INHIBITING THE TRANSIENT RECEPTOR POTENTIAL A1 ION CHANNEL” (HYDRA BIOSCIENCES, INC., priority 2014, published 2017).
In brackets after ≈: the same amount, converted by molar mass. Like-named read-outs stand apart in the source and are kept apart here.

Key:
[1] = Metabolic stability in liver microsomes; format: in vitro ADME, human; conditions: 1 μM test compound; for half-life at 1 μM: human, liver microsomes, 37° C.
Experimental: (§1) Metabolic stability of the compounds of Formula (I) was determined by standard liver microsome assays. Briefly, metabolic stability was tested by adding the compound to be tested dissolved in DMSO to human, dog, or rat liver microsomes. Assays were run with a starting concentration of 1 μM test compound. The reaction was initiated by addition of nicotinamide adenine dinucleotide phosphate[…] (NADPH) regeneration components at 37° C., at which time an aliquot was immediately quenched in an ice-cold acetonitrile/methanol/water solution. Reaction mixture was incubated at 37° C. on a shaker, and additional aliquots were taken at 7, 15, 30 and 60 minutes. Following quench and centrifugation, samples were analyzed on HPLC/MS/MS.

human TRPA1 (hTRPA1) = biological target: T1, human TRPA1 (hTRPA1) (Homo sapiens, UniProt O75762); test: Inhibition of human TRPA1, whole-cell patch clamp; format: cell-based; conditions: antagonist effect, whole cell patch configuration; read-out: hTRPA1
T1 construct: expressed in transfected cells
Experimental: Data for TRPA1 inhibition was obtained by this method for the indicated compounds of Formula (I), with the relevant data included in Table 14 below. All currents were recorded in whole-cell configuration using EPC-9 and EPC-10 amplifiers and Patchmaster software (HEKA). […] The standard pipette solution consisted of 140 mM CsAsp, 10 mM EGTA, 10 mM HEPES, […], 1.91 mM CaCl2, and up to 0.3 mM Na2GTP, with pH adjusted to 7.2 with CsOH. In addition, a solution containing 145 mM CsCl, 10 mM HEPES, 10 mM EGTA, and up to 0.3 mM Na2GTP and 1 mM MgCl2 (pH 7.2 adjusted with CsOH) can be used. The standard bath solution contained 150 mM NaCl, 10 mM HEPES, 10 mM glucose, 4.5 mM KCl, 1 mM EGTA, 3 mM MgCl2, with pH adjusted to 7.4 with NaOH. In some instances, 2 mM CaCl2 was added in place of EGTA and the concentration of MgCl2 was reduced to 1 mM.
Data were collected either by continuous recordings at −60 mV or by applying voltage ramps from a holding potential of 0 mV every 4 s. Continuous recordings were collected at 400 Hz and digitally filtered off-line at 10 Hz for presentation. Voltage ramps were applied from −100 mV to 100 mV over the course of 400 ms, and data were collected at 10 kHz and filtered at […]. Inward and outward currents were analyzed from the ramps at −80 and 80 mV, respectively. Liquid junction potential correction was not used.
Solutions were switched using a gravity-fed continuous focal perfusion system. To achieve rapid temperature changes, two temperature control, and perfusion systems were employed simultaneously. For temperatures greater than or equal to 22° C., a Warner Instruments bipolar temperature controller (TC-344B) and inline heater (SHM-8) were used. […] Temperatures were confirmed using a thermistor (Warner Instruments, TA-29), with temperatures at the recorded cell estimated to be within +/−2° C. of those reported.
The antagonist effects of compounds of Formula (I) against human TRPA1 (“hTRPA1”) in a whole cell patch configuration were evaluated using the in vitro assay protocol described above.

[2] = Metabolic stability in liver microsomes; format: in vitro ADME
Experimental: as §1

[3] = Solubility in Normal Ringer Solution; format: physicochemical; conditions: aqueous buffer, kinetic from dmso stock, pH 7.4, room temperature
Experimental: Compounds of the invention were also tested for solubility in Normal Ringer Solution. […] Following vortex and incubation for 40 minutes at room temperature, solutions were filtered, quenched with acetonitrile, and analyzed by liquid chromatography. Solubility limits were determined by comparison to a standard curve. […] Solubility is reported as “greater than” if the observed increase between the last 2 dilutions tested is greater than 2-fold.

[4] = Oral bioavailability of solutions in non-fasted rats; conditions: rat, in vivo, oral solution, read-out: Rat % F
Experimental: Early bioavailability studies in rat were conducted with solutions of the compounds of the invention. Compounds were delivered via oral administration as a solution in an appropriate excipient. Example formulations include, but are not limited to: 4% DMSO, 10% Solutol HS-15, and 86% water or 4% DMSO, 5% Tween, 25% Cremophor EL. Target concentrations were typically 1 mg/mL, and administered via oral gavage to non-fasted rats. The absolute bioavailability is the dose-corrected area under the curve (AUC) non-intravenous divided by the dose corrected AUC intravenous. The formula for calculating F for a drug administered by the oral route (PO) is given below:
% F=AUC PO×Dose IV/AUC IV×Dose PO

[5] = Kinetic solubility in buffered solutions; format: physicochemical; conditions: aqueous buffer, kinetic from dmso stock, 24 hours ambient
Experimental: The solubilities of the compounds of Formula (I) were tested using the procedure outlined in Kerns, E. H., J Pharm Sci (2001) 90:1838-1858, incorporated herein by reference and described below. Data for solubility was obtained by this method for compounds of Formula (I) and included in Table 3. The chromatographic data was performed by HPLC using an Xbridge Shield RP18 column with the following column dimensions: 4.6×30 mm, 3.5 μm. The mobile phase consisted of deionized water (MPA) with trifluoroacetic acid added in at 0.1% (v/v) (MPC) and HPLC-grade acetonitrile (MPB). The mobile phase flow rate was 2.5 mL/min with the column and sampling operating at ambient temperature. UV detection was set to 280 nm.
Samples for analysis of the compounds of Formula (I) were prepared at a % v/v=1/19 (i.e., 10 μL of the stock solution into 190 μL of buffer) by spiking stock solutions of the compounds of Formula (I) into buffered solutions. Three buffered solution systems were prepared: pH 4.0 prepared from 50 mM sodium acetate in a 5% dextrose in water solution, pH 7.4 prepared from 75 mM sodium phosphate in a 1:1 ratio of sterilized water for injection to a 5% dextrose in water solution, and pH 9.0 prepared from 50 mM sodium bicarbonate in a 1:2 ratio of sterilized water for injection to a 5% dextrose in water solution. The samples were incubated on a microplate shaker at 300 rpm for 24 hours at ambient temperature. Following incubation, the samples were centrifuged for five minutes at 13 k rpm at ambient temperature. The resulting supernantant was extracted for HPLC analysis.

CYP2C8 = CYP2C8 (Homo sapiens, UniProt P10632); test: in vitro; conditions: probe Amodiaquine
CYP2B6 = CYP2B6 (Homo sapiens, UniProt P20813); test: in vitro; conditions: probe Buproprion
in vitro = conditions: plasma
Experimental: With this method, free compound is separated from protein-bound compound by dialysis across a semi-permeable membrane.
The protein binding was tested at a concentration of 1 μM. Pooled human, cynomolgus monkey, dog, and rat K2EDTA plasma was thawed and centrifuged at 2000×g for 10 minutes at 4° C. to remove particulates; any lipid on the top of the supernatant was also removed by aspiration. The plasma was warmed to 37° C. for 10 minutes before use. Test compounds were spiked into 2 ml plasma in a polypropylene plate to a final concentration of 1 μM. Triplicate 400 μl aliquots of spiked plasma were transferred into the Thermo RED dialysis units and dialyzed against 600 μl of PBS buffer. […] After 6 hours dialysis, triplicate 50 μl aliquots were removed from the RED plate, matrix-matched with either PBS buffer or blank plasma, as appropriate, and quenched with 4 volumes of ACN containing an internal standard. The extracted samples were then centrifuged at 2000×g for 5 minutes at 4° C. The supernatant (50 μl) was removed and diluted with 100 μl water prior to LC/MS/MS bioanalysis.

[6] = dog liver microsomes, both sexes, read-out: Half-Life both sexes
[7] = rat liver microsomes, both sexes, read-out: Half-Life Both sexes
[8] = sodium acetate buffer, pH 4.0, 50 mM sodium acetate, read-out: pH 4.0 solubility
[9] = sodium bicarbonate buffer, pH 9.0, 50 mM sodium bicarbonate, read-out: pH 9.0 solubility
[10] = sodium phosphate buffer, pH 7.4, 75 mM sodium phosphate, read-out: pH 7.4 solubility
[11] = rat liver microsomes, male, read-out: Male Half-Life

T1 sequence (O75762 whole entry): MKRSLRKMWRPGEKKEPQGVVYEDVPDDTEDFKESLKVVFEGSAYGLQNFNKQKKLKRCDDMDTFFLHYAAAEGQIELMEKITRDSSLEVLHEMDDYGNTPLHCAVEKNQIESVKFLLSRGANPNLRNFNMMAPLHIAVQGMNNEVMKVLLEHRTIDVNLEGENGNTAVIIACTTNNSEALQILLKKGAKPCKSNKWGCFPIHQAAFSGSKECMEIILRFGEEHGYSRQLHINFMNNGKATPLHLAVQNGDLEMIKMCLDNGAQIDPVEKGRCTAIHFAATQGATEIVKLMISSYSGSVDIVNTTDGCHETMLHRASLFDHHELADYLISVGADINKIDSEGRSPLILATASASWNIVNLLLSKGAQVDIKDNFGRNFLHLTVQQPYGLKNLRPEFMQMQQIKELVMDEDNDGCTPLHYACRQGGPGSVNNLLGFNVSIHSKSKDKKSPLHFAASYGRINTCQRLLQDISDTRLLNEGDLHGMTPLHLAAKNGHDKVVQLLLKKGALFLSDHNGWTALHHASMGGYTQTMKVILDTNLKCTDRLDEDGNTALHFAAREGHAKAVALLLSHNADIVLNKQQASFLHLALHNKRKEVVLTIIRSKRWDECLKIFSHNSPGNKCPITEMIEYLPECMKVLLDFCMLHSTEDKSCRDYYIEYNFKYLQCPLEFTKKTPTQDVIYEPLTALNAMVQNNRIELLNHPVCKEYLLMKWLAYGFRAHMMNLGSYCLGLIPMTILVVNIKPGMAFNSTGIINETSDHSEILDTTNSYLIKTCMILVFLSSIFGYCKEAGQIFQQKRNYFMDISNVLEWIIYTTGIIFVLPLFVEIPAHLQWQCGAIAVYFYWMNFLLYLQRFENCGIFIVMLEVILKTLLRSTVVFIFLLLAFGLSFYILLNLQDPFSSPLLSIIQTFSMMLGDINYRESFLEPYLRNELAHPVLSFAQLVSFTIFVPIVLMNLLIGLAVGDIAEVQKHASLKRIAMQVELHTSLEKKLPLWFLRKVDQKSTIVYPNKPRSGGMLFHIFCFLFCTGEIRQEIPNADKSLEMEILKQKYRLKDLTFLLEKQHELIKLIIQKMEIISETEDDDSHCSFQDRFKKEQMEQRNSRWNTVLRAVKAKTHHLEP
CYP2B6, sequence (P20813 whole entry): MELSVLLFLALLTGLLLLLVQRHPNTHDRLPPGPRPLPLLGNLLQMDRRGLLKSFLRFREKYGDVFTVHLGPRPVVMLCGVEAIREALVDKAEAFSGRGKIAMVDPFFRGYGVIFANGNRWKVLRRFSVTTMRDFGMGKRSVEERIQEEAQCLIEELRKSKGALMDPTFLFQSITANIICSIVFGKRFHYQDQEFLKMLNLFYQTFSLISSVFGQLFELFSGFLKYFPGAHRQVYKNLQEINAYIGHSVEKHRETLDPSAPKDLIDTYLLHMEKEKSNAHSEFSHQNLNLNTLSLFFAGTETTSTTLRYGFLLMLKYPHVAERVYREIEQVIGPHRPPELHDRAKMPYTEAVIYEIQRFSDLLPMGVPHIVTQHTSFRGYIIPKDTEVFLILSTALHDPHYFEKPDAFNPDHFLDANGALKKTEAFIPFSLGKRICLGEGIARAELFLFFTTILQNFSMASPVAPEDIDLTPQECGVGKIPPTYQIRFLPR
CYP2C8, sequence (P10632 whole entry): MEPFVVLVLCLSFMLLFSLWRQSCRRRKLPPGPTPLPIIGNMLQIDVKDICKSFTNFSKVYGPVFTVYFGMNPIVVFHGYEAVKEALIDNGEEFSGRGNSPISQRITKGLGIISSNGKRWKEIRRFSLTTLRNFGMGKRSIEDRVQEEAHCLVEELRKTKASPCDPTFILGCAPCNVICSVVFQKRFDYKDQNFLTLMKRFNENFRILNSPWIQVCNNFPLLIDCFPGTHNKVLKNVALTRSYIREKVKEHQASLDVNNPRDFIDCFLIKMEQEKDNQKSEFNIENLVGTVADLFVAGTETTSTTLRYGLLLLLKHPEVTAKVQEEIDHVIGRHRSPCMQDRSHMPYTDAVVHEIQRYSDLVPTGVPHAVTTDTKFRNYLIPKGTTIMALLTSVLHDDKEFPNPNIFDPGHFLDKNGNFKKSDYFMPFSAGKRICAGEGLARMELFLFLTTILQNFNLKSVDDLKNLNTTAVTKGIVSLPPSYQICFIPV

Structure (SMILES)	half-life at 1 μM [1]	IC50 (human TRPA1 (hTRPA1))	half-life at 1 μM [2, 7]	solubility at 40 min [3]	further results
C[C@@H](C(=O)Nc1ccnc(-c2cnc(N3CCC[C@H]3C(F)(F)F)nc2)n1)n1cnc2[nH]c(=O)n(C)c(=O)c21 [Compound 5, (S)-2-(1-methyl-2,6-dioxo-2,3-dihydro-1H-purin-7(6H)-yl)-N-(2′-((S)-2-(trifluoromethyl)pyrrolidin-1-yl)-[2,5′-bipyrimidin]-4-yl)propanamide]	37.8 min	663 nM	113 min	4.37 µM (≈ 2.32 µg/mL)	half-life at 1 μM [2, 6]: > 120 min
C[C@@H](C(=O)Nc1ccnc(-c2cnc(N3CCC[C@H]3C(F)(F)F)nc2)n1)n1cnc2c1c(=O)n(C)c(=O)n2C(F)F [Compound 6, (S)-2-(3-(difluoromethyl)-1-methyl-2,6-dioxo-2,3-dihydro-1H-purin-7(6H)-yl)-N-(2′-((S)-2-(trifluoromethyl)pyrrolidin-1-yl)-[2,5′-bipyrimidin]-4-yl)propanamide]	27.4 min	29.7 nM	118 min	~23 µM (≈ 13.4 µg/mL)	
C[C@@H](C(=O)Nc1ccnc(-c2cnc(N3CC(C(F)(F)F)C3)nc2)n1)n1cnc2c1c(=O)n(C)c(=O)n2C [Compound 13, (S)-2-(1,3-dimethyl-2,6-dioxo-2,3-dihydro-1H-purin-7(6H)-yl)-N-(2′-(3-(trifluoromethyl)azetidin-1-yl)-2,5′-bipyrimidin-4-yl)propanamide]	> 60 min	62.9 nM	60 min	> 77.6 µM	
C[C@@H](C(=O)Nc1ccnc(-c2cnc(N3CC4CC4C3)nc2)n1)n1cnc2c1c(=O)n(C)c(=O)n2C (stereo partly drawn) [Compound 15, (2S)—N-(2′-(3-azabicyclo[3.1.0]hexan-3-yl)-2,5′-bipyrimidin-4-yl)-2-(1,3-dimethyl-2,6-dioxo-2,3-dihydro-1H-purin-7(6H)-yl)propanamide]	88.8 min	26.7 nM	72.7 min	16.3 µM (≈ 7.96 µg/mL)	bioavailability [4]: 35%
C[C@@H](C(=O)Nc1ccnc(-c2cnc(N3CCC(C(F)(F)F)C3)nc2)n1)n1cnc2c1c(=O)n(C)c(=O)n2C (stereo partly drawn) [Compound 16, (2S)-2-(1,3-dimethyl-2,6-dioxo-2,3-dihydro-1H-purin-7(6H)-yl)-N-(2′-(3-(trifluoromethyl)pyrrolidin-1-yl)-2,5′-bipyrimidin-4-yl)propanamide]	52.4 min	24.9 nM		> 47 µM	
C[C@H]1CCCN1c1ncc(-c2nccc(NC(=O)Cn3cnc4c3c(=O)n(C)c(=O)n4C)n2)cn1 [Compound 19, (S)-2-(1,3-dimethyl-2,6-dioxo-2,3-dihydro-1H-purin-7(6H)-yl)-N-(2′-(2-methylpyrrolidin-1-yl)-2,5′-bipyrimidin-4-yl)acetamide]	50 min	96.1 nM	63.8 min	> 18.2 µM	Human Liver Microsomes Hepatic Clearance [1]: 9 mL/min/kg; solubility kinetic at 24 h [5, 8]: 6 µg/mL (≈ 12.6 µM); solubility kinetic at 24 h [5, 9]: 3.5 µg/mL (≈ 7.35 µM); solubility kinetic at 24 h [5, 10]: 10 µg/mL (≈ 21 µM); Hepatic Clearance ([2]; dog liver microsomes): 11 mL/min/kg; half-life at 1 μM [2, 6]: 44 min; Male Hepatic Clearance ([2]; rat liver microsomes, male): 25 mL/min/kg; half-life at 1 μM [2, 11]: 36 min; bioavailability [4]: 77%
O=c1c(O)c(-c2ccc(O)c(O)c2)oc2cc(O)cc(O)c12 [Quercetin, reference compound]					inhibition at 10 µM (CYP2C8): 61.5%
Clc1ccccc1CN1CCc2sccc2C1 [Ticlopidine, reference compound]					inhibition at 10 µM (CYP2B6): 98.2%
CC(=O)CC(c1ccccc1)c1c(O)c2ccccc2oc1=O (centres unmarked) [Warfarin, reference compound]					fraction unbound at 6 h, 1 μM (in vitro; beagle, dog): 0.065; fraction unbound at 6 h, 1 μM (in vitro; cynomolgus monkey): 0.011

Now from value to compound, other results behind:

half-life at 1 μM [1]	IC50 (human TRPA1 (hTRPA1))	half-life at 1 μM [2, 7]	solubility at 40 min [3]	Structure (SMILES)	further results
30 min	51 nM			C[C@H]1CCCN1c1ncc(-c2nccc(NC(=O)[C@H](C)n3cnc4c3c(=O)n(C)c(=O)n4C)n2)cn1 [Compound 21, (S)-2-(1,3-dimethyl-2,6-dioxo-2,3-dihydro-1H-purin-7(6H)-yl)-N-(2′-((S)-2-methylpyrrolidin-1-yl)-[2,5′-bipyrimidin]-4-yl)propanamide]	Human Liver Microsomes Hepatic Clearance [1]: 10.5 mL/min/kg; solubility kinetic at 24 h [5, 8]: 34 µg/mL (≈ 69.3 µM); solubility kinetic at 24 h [5, 9]: 10.5 µg/mL (≈ 21.4 µM); solubility kinetic at 24 h [5, 10]: 20 µg/mL (≈ 40.8 µM); Female Hepatic Clearance ([2]; dog liver microsomes, female): 8 mL/min/kg; half-life at 1 μM ([2]; dog liver microsomes, female, read-out: Female Half-Life): 66 min; Hepatic Clearance ([2]; rat liver microsomes): 11 mL/min/kg; Male Hepatic Clearance ([2]; rat liver microsomes, male): 34 mL/min/kg; half-life at 1 μM [2, 11]: 16 min
			> 15.1 µM	C[C@@H](C(=O)Nc1ccnc(-c2cnc(N3CC4C(C3)C4(F)F)nc2)n1)n1cnc2c1c(=O)n(C)c(=O)n2C (some centres unmarked) [Compound 26]	
